Assay results reported in article PMC6335623, “A computationally designed binding mode flip leads to a novel class of potent tri-vector cyclophilin inhibitors” (Chemical Science, 2018).
Read-outs that look alike come from different tables or passages of the source.

Assays:
CypA = biological target: T1, CypA (Homo sapiens, UniProt P62937); experiment: Isothermal titration calorimetry (ITC), ester series, direct titration; conditions: 25 °C, 50 mM phosphate buffer pH 6.5; single experiments; uncertainties from fit to one-site binding model; n.b. = no binding observed at the maximum concentration tested
T1 construct: His-tag (TEV-cleavable) (cleaved yes); made in house; host or cells: E. coli C41 BL21(DE3) ('C41 BL21(DH3)' [sic]); plasmid from the Edinburgh Protein Production Facility
Experimental: The molecular weights of HisCypA and free CypA are 20.893 and 18.070 kDa, respectively. Protein concentration was determined by measuring the absorbance at 280 nm and the extinction coefficients 14440 and 8480 M-1 cm-1, respectively.
Isothermal Titration Calorimetry (ITC)
ITC1 – Ester series: Instrument and experimental setup
All ITC experiments for the ester series compounds were carried out at 25 °C on a MicroCal Auto iTC200 (GE Healthcare) instrument. The buffer used in the titrations of the compounds belonging to the ester series (1 – 12) was 50 mM phosphate buffer, pH 6.5 and the concentration of DMSO was 2% v/v for all the compounds, unless otherwise stated in Table S1. Final compound solutions were heated to 65 °C and/or sonicated prior to the experiment. Each experiment consisted of an initial injection of 0.4 μL followed by nineteen 2 μL injections and in most of cases for these compounds, the “continue injections” protocol was used leaving the cell intact and performing a second series of titrations using the above protocol to achieve saturation. Control experiments were performed, where each compound was titrated into buffer and when small amount of heat was detected due to heat of dilution, it was subtracted when processing the data using a linear fit method. A more detailed setup for each experiment is depicted in Table S6. In all cases the first injection was omitted from the data processing. All data were analysed using the MicroCal PEAQ-ITC […]
(Wiseman constant) is very small, a fixed stoichiometry to 1 was applied during the non-linear regression of […]
the duration of the experiment.

His-CypA = biological target: T2, His-CypA (Homo sapiens, UniProt P62937); experiment: Surface plasmon resonance (SPR) kinetic titration, BIAcore T200; type: binding
T2 construct: made in house; host or cells: E. coli C41 BL21(DE3) ('C41 BL21(DH3)' [sic]); plasmid from the Edinburgh Protein Production Facility
Experimental: (§1) injection protocol (Fig. S9B). […]
(§2) using the same instrument parameters was performed (Fig. S9A).
(§3) Surface Plasmon Resonance (SPR)
(§4) SPR1 – SPR equipment and reagents
(§5) SPR measurements were performed on a BIAcore T200 instrument (GE Healthcare). Ni2+- nitrilotriacetic acid (NTA) sensor chips, 1-ethyl-3-(3- diaminopropyl) carbodiimide hydrochloride (EDC) and Nhydroxysuccinimide (NHS) were purchased from GE Healthcare.
(§6) SPR2 – Immobilization and covalent stabilizations of His-Cyps
(§7) Pure His-cyclophilins were immobilized and covalently stabilized on the NTA sensor chip according to the protocol described [Wear et al., 2017, FEBS OpenBio], using 200 nM concentrations of each protein, in Running Buffer (PBS, pH 7.4; 0.05% surfactant P20, 2% v/v ethanol; 50 µM EDTA), at 30 µl min-1 with 60 second contact times on the activated NTA surfaces.
(§8) (1 picture or pasted object on this page, not shown here)
(§9) Specific surface protein activity was assayed by passing saturating […]
(§10) SPR3 – Kinetic titration experiments
(§11) Buffer (PBS, pH 7.4, 50 µM mM EDTA; 0.05 % v/v surfactant P20; 2 % v/ v ethanol), were injected over the sensor surface, at 100 µl.min -1 with a 90 s contact time and a 90 s dissociation time. The sensor surface was regenerated between experiments by dissociating any formed complex in running buffer for at least 1,200 seconds. The apparent on-rate (k+) and off-rate (k-) constants and the equilibrium dissociation constant (K d) were calculated from reference corrected sensorgrams by global fitting of a 1:1 binding model, including a mass transport term, using analysis software ( v.2.02, GE Healthcare) provided with the BIAcore T200 […]
(§12) Buffer (PBS, pH 7.4, 50 µM mM EDTA; 0.05 % v/v surfactant P20; 2 % v/v ethanol), were injected over the sensor surface, at 100 µl.min-1 with a 15 s contact time and a 600 s dissociation time. The sensor surface was […]

His-CypD = biological target: T3, His-CypD (Homo sapiens, UniProt P30405); experiment: as above; type: binding; conditions: 25 °C, mean ± 1σ from three repeat experiments
T3 construct: made in house; host or cells: E. coli C41 BL21(DE3) ('C41 BL21(DH3)' [sic]); plasmid from the Edinburgh Protein Production Facility
Experimental: as §1, §2, §3, §4, §5, §6, §7, §8, §9, §10, §11, §12

His-CypB = biological target: T4, His-CypB (Homo sapiens, UniProt P23284); experiment: biochemical; type: binding; conditions: 25 °C, mean ± 1σ from three repeat experiments; read-out: Kd (SPR) CypB
T4 construct: made in house; host or cells: E. coli C41 BL21(DE3) ('C41 BL21(DH3)' [sic]); plasmid from the Edinburgh Protein Production Facility
Experimental: as §1, §2, §3, §4, §5, §6, §7
(1 picture or pasted object on this page, not shown here) […]
as §11, with “The sensor surface was regenerated between experiments by dissociating any formed complex in running buffer for at least 1,200 seconds.” left out

MDA-MB-231_NLG cells = experiment: cells; type: cell-based; conditions: 120 hours treatment
Experimental: The tumorigenic, breast, epithelial adenocarcinoma cell lines MDA-MB-231_NLG and the normal, lung fibroblast cell line, IMR90 were cultured as adherent monolayers in DMEM with 10% volume FBS in an atmosphere with 5% CO2 and 95% humidity and were routinely sub-cultured upon reaching 80-90% confluence. MDA-MB-231_NLG cells are a variant of MDA-MB-231 cells, expressing nuclear-restricted green fluorescent protein; they were produced by stable transduction of MDA-MB-231 cells with NucLight Green lentivirus (Essen Bioscience), following the manufacturer’s protocol.
Image-based Cell Viability Assays
Cells were seeded at a density of 500 cells per well in cell culture medium in 384-well cell culture plates and allowed to adhere overnight (about 16 hours), incubated in a humidified atmosphere with 5% CO2.
Subsequently, cell culture medium was refreshed, supplemented with Draq 7 (3µM final concentration) and test compound at the indicated concentrations with three wells being treated for each condition tested. Cells were then returned to the cell culture incubator and imaged with a 10X objective every 3 hours for 120 hours using an IncuCyte ZOOM microscope from Essen Bioscience.
Using the IncuCyte ZOOM software, custom image analysis procedures were developed and applied for each cell line to determine cell confluency, cell number and number of dead cells over the time course of the experiment. Phase contrast was used to determine relative area of each image occupied by cells (confluency), while green nuclear counts were used to determine number of MDA-MB-231_NLG cells and red nuclear counts were used to determine number of dead (Draq7-positive) cells. […]
growth inhibition) being determined by fitting non-linear regression curves to the data and extrapolating the required values using GraphPad Prism 6. Statistical analyses in cell viability assays to compare the effect of compound treatment to treatment with vehicle were performed using GraphPad Prism 6 (2-way ANOVA with Bonferroni correction post hoc).

T1 sequence (P62937 whole entry): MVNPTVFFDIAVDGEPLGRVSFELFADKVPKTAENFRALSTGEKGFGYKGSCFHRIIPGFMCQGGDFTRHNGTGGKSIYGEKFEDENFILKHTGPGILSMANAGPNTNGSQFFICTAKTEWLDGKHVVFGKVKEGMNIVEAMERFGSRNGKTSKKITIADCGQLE
T2 sequence (P62937 whole entry): as above
T3 sequence (P30405 30-207): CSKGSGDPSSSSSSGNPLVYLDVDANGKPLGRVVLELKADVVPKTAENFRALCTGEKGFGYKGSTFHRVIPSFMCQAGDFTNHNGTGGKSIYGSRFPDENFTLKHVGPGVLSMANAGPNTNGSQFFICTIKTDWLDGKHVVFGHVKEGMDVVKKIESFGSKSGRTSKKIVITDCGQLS
T4 sequence (P23284 34-216): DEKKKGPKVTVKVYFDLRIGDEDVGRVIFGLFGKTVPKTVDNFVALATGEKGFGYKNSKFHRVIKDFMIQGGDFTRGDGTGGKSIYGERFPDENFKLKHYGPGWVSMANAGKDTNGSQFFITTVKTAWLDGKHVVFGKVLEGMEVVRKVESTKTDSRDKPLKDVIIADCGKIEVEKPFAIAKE

CCOC(=O)CNC(=O)N(Cc1ccc(N)cc1)C(C)C.Cl [Compound 3] was tested, and the “CypA Kd (ITC)” value (CypA) was “n.b and n.b. and inactive”.
In the case of CCOC(=O)CNC(=O)N(Cc1ccc(N)cc1)CC1CC1.Cl [Compound 7], the “CypA Kd (ITC)” value (CypA) is reported as “n.b and n.b. and very weak binders”.
CCCN(Cc1ccc(N)cc1)C(=O)NCC(=O)OCC [Compound 4] gave a Kd (CypA) of 266 ± 3 µM.
In the case of CCOC(=O)Cn1cc(CN(Cc2ccc(N)cc2)C(=O)NCC(=O)N2CCCC2c2ccccc2Br)nn1 (stereo not drawn) [Compound 16], the Kd (His-CypA) is reported as 4.3 ± 1 µM, the Kd (His-CypD) is reported as 1 ± 0.4 µM and the Kd (His-CypB) is reported as 1.9 ± 0.9 µM.
For Cl.Cn1cc(CN(Cc2ccc(N)cc2)C(=O)NCC(=O)N2CCCC2c2ccccc2Br)nn1 (stereo not drawn) [Compound 14], the “GI50, growth inhibition” value (MDA-MB-231_NLG cells; mean with 95% CI [lower limit, upper limit], three independent experiments) was “inactive”.
In the case of C#CCN(Cc1ccc(N)cc1)C(=O)NCC(=O)N1CCCC1c1ccccc1Br (stereo not drawn) [Compound 13], the Kd (His-CypA; 25 °C, mean ± 1σ from three repeat experiments, read-out: Kd (SPR) CypA) is reported as 3.2 ± 1.3 µM, the Kd (His-CypD) is reported as 0.2 ± 0.1 µM and the Kd (His-CypB) is reported as 1.4 ± 0.4 µM. For the same compound, the “cell death (dead cells)” value (MDA-MB-231_NLG cells) was “Negligible cell death” and the GI50 (MDA-MB-231_NLG cells; Homo sapiens, mean with 95% CI [lower limit, upper limit], three independent experiments, read-out: GI50, growth inhibition) was 5.13 µM.
CCOC(=O)CNC(=O)N(CC#N)Cc1ccc(N)cc1.Cl [Compound 6] was tested, and the “CypA Kd (ITC)” value (CypA) was “very weak binders” and the Kd (CypA) was 993 ± 20 µM.
For CCOC(=O)CNC(=O)N(Cc1ccc(N)cc1)C1CCNCC1.Cl.Cl [Compound 11], the “CypA Kd (ITC)” value (CypA) was “n.b and n.b. and inactive”.
